Test results: PMC9769502 (Microbiology Spectrum, 2022)
Where two headings read alike, the source gives them in different places. No end group written: not given here.

Columns and labels:
[1] = test system: THP-1 macrophages; test: Cytotoxicity against THP-1 macrophages (CellTiter-Blue); assay type: cell-based, human
Experimental: THP-1 (human acute monocytic leukemia-derived) host macrophages were cultured in RPMI 1640 supplemented with 10% FCS and a penicillin-streptomycin antibiotic solution (10,000 U/mL penicillin, 10,000 μg/mL streptomycin) at 37°C with 5% CO2. THP-1 cells were incubated with 0.25 μM phorbol 12-myristate […] (PMA) for 48 h to differentiate into mature macrophages. Differentiated macrophages were seeded into 96-well plates at 5 × 10^6 cells/mL and incubated for 48 h in the presence of 20 μM antimicrobial peptides along with the appropriate solvent controls. Cell viability assays were conducted using CellTiter-Blue (Promega), based on resazurin reduction. After the 48-h incubation period, CellTiter-Blue reagent was added to cells for 4 h at 37°C, and fluorescence was measured (555-nm excitation/580-nm emission) using a FlexStation 3 benchtop multimode reader (Molecular Devices). Each assay was performed in triplicate. The CC50 values were calculated by nonlinear regression analysis using GraphPad Prism 9.0 for Windows.

[2] = test system: Leishmania donovani axenic amastigotes
Experimental: We utilized a previously developed high-throughput screening assay using transgenic axenic amastigotes expressing a red fluorescent protein, mCherry. Changes in mCherry fluorescence were normalized to 50 μM miltefosine in order to quantify parasite inhibition ([52]). In total, 5 scaffold 25-mer peptides and 475 synthetic 25-mer peptide variants were screened (Fig. 1). […] The assay was repeated, and the average percent parasite killing was determined.
Axenic amastigotes were differentiated as described previously ([69]).
Axenic amastigotes were differentiated as described previously ([69]); briefly, transgenic L. donovani promastigotes expressing mCherry were differentiated by pH and temperature shifts. Amastigotes were seeded into 96-well plates at 5 × 10^6 cells/mL and incubated for 48 h in the presence of decreasing drug concentrations, starting at 20 μM, along with the appropriate solvent controls. Fluorescence was monitored (587-nm excitation/610-nm emission) over 48 h using a FlexStation 3 benchtop multimode reader (Molecular Devices). […] Thus, changes in mCherry fluorescence were normalized to the 50 μM miltefosine control in order to quantify parasite inhibition. Each assay was performed in triplicate. The IC50 values were calculated by nonlinear regression analysis using GraphPad Prism 9.0 for Windows.

[3] = read-out: Axenic amastigotes Mean IC50 ± SD
[4] = read-out: Axenic amastigotes Mean IC50 ± SD, L. donovani mCherry axenic amastigotes, 48 h, fluorescence normalized to 50 μM miltefosine, highest concentration 20 μM, mean of three replicates

Row | Sequence | THP-1 macrophage CC50 [1] | IC50 [2, 3] [nM] | IC50 [2, 4] [nM] | THP-1 macrophage CC50 ([1]; 48 h) [µM] | IC50 ([2]; 48 h) [nM]
1 | AGANRLTKELLEYLRKFGKIWRKAW [Syn-xiamencin-40] | < 20 µM | 1310 | – | – | –
2 | AGANRLTKELLEYLRKFWKIARKAW [Syn-xiamencin-24] | < 20 µM | – | 1630 | – | –
3 | AGANRLWKELLEYLRKFGKIARKAW [Syn-xiamencin-48] | < 20 µM | 2180 | – | – | –
4 | AGAQRLTKELLEYLRKFGKIWRKAW [Syn-xiamencin-39] | < 20 µM | 6810 | – | – | –
5 | AGAQRLTKELLEYLRKFWKIARKAW [Syn-xiamencin-23] | < 20 µM | – | 1140 | – | –
6 | AGAQRLTLYLKEELRKRWKKAFIAW [Syn-xiamencin-18] | < 20 µM | – | 650 | – | –
7 | AGAQRLWKELLEYLRKFGKIARKAW [Syn-xiamencin-47] | < 20 µM | 2680 | – | – | –
8 | AGKEKIRKKLKNEIKKKGRKAWIAW [Syn-safencin 72] | > 20 µM | – | – | >20 | 12070 ± 90
9 | AGKEKIRKKLKNEIKKKGRKWVIAW [Syn-safencin-64] | < 20 µM | – | 330 | – | –
10 | AGKEKIRKKLKNEWKKKGRKAVIAW [Syn-safencin-48] | < 20 µM | – | 1750 | – | –
11 | AGKEKIRKKWKNEIKKKGRKAVIAW [Syn-safencin-40] | < 20 µM | – | 2120 | – | –
12 | AGKEKIRQFLKKKIQEGKKRATIAW [Syn-larvacin-76] | < 20 µM | – | 1580 | – | –
13 | AGKEKIRQFLKKKIQEKGKRATIAW [Syn-larvacin-73] | < 20 µM | – | 390 | – | –
14 | AGKEKIRQFLKKTIQEKGKRAKIAW [Syn-larvacin-77] | < 20 µM | – | 10300 | – | –
15 | AGKEKIRQYLKNEIKKKGRKAVWAW [Syn-safencin 77] | > 20 µM | – | – | >20 | 390 ± 130
16 | AGKEKIRQYLKNEIKKKGRKAWIAW [Syn-safencin-69] | < 20 µM | – | 3370 | – | –
17 | AGKEKIRQYLKNEIKKKGRKWVIAW [Syn-safencin-61] | < 20 µM | – | 3560 | – | –
18 | AGKEKIRQYWKNEIKKKGRKAVIAW [Syn-safencin-37] | < 20 µM | – | 5210 | – | –
19 | AGKEKWRKKLKNEIKKKGRKAVIAW [Syn-safencin-32] | < 20 µM | – | 4620 | – | –
20 | AGKETIFQRLKKKIQEKGKRATIAW [Syn-larvacin-3] | below 20 μM | – | 360 | – | –
21 | AGKETIFQRLKKKIQEKWKRATIAW [Syn-larvacin-43] | < 20 µM | – | 220 | – | –
22 | AGKETIFWRLKKKIWEKGKRATIAW [Syn-larvacin-51] | < 20 µM | – | 420 | – | –

Row | Sequence | THP-1 macrophage CC50 [1] | IC50 [2, 3] [nM] | IC50 [2, 4] [nM] | THP-1 macrophage CC50 ([1]; 48 h) [µM] | IC50 ([2]; 48 h) [nM]
23 | AGKETIRKYLKNEIKKKGRKAVIAW [Syn-safencin 6] | > 20 µM | – | – | >20 | 480 ± 70
24 | AGKETIRKYLKNEIKKKGRKAVWAW [Syn-safencin 78] | > 20 µM | – | – | >20 | 940 ± 140
25 | AGKETIRQFLKKKIQEGKKRATIAW [Syn-larvacin-4] | below 20 μM | – | 1090 | – | –
26 | AGKETIRQFLKKKIQEGKKRATIWW [Syn-larvacin-68] | < 20 µM | – | 1310 | – | –
27 | AGKETIRQFLKKKIQEKGKIAKRAW [Syn-larvacin-94] | < 20 µM | – | 18200 | – | –
28 | AGKETIRQFLKKKIQEKGKIATRWW [Syn-larvacin-70] | < 20 µM | – | 300 | – | –
29 | AGKETIRQFLKKKIQEKGKRATIWW [Syn-larvacin-65] | < 20 µM | – | 310 | – | –
30 | AGKETIRQFLKKKIQEKKKRATIAW [Syn-larvacin-81] | < 20 µM | – | 260 | – | –
31 | AGKETIRQFLKKKIQEWKKRATIAW [Syn-larvacin-44] | < 20 µM | – | 470 | – | –
32 | AGKETIRQFLKKRIQEKGKRAKIAW [Syn-larvacin-93] | < 20 µM | – | 2460 | – | –
33 | AGKETIRQFLKKTIQEKGKRAKIWW [Syn-larvacin 69] | > 20 µM | – | – | >20 | 4140 ± 110
34 | AGKETIRQKLKNEIKKKGRKAVIAW [Syn-safencin 7] | > 20 µM | – | – | >20 | 770 ± 80
35 | AGKETIRQKWKNEIKKKGRKAVIAW [Syn-safencin-39] | < 20 µM | – | 720 | – | –
36 | AGKETIRQYLKNEIKKKGRKAVIWW [Syn-safencin-81] | < 20 µM | – | 3150 | – | –
37 | AGKETIRQYLKNEIKKKGRKAVWAW [Syn-safencin 73] | > 20 µM | – | – | >20 | 350 ± 80
38 | AGKETIRQYLKNEIKKKGRKAWIAW [Syn-safencin-65] | < 20 µM | – | 1010 | – | –
39 | AGKETIRQYLKNKIKKKWRKAVIAW [Syn-safencin-51] | < 20 µM | – | 6360 | – | –
40 | AGKETIRQYLKNKWKKKGRKAVIAW [Syn-safencin-43] | < 20 µM | – | 11200 | – | –
41 | AGKETIRQYWKNKIKKKGRKAVIAW [Syn-safencin-35] | < 20 µM | – | 290 | – | –
42 | AGKETIRWFLKKKIWEGKKRATIAW [Syn-larvacin-52] | < 20 µM | – | 1860 | – | –
43 | AGKEWIFQRLKKKIQEKGKRATIAW [Syn-larvacin-19] | < 20 µM | – | 730 | – | –
44 | AGKKTIRQYLKNEIKKKGRKAVIAW [Syn-safencin 2] | > 20 µM | – | – | >20 | 2420 ± 90

Row | Sequence | THP-1 macrophage CC50 [1] | IC50 [2, 3] [nM] | IC50 [2, 4] [nM] | THP-1 macrophage CC50 ([1]; 48 h) [µM] | IC50 ([2]; 48 h) [nM]
45 | AGKKTIRQYLKNEIKKKGRKAVIWW [Syn-safencin 82] | > 20 µM | – | – | >20 | 375 ± 100
46 | AGKKTIRQYLKNEIKKKGRKAVWAW [Syn-safencin-74] | < 20 µM | – | 3510 | – | –
47 | AGKKTIRQYLKNEIKKKGRKAWIAW [Syn-safencin 66] | > 20 µM | – | – | >20 | 3640 ± 100
48 | AGKKTIRQYLKNKIKKKGRKAVWAW [Syn-safencin-76] | < 20 µM | – | 16300 | – | –
49 | AGKKTIRQYLKNKIKKKGRKAWIAW [Syn-safencin-68] | < 20 µM | – | 560 | – | –
50 | AGKKTIRQYLKNKIKKKGRKWVIAW [Syn-safencin-60] | < 20 µM | – | 1310 | – | –
51 | AGKKTIRQYLKNKIKKKWRKAVIAW [Syn-safencin-52] | < 20 µM | – | 580 | – | –
52 | AGKKTIRQYLKNKWKKKGRKAVIAW [Syn-safencin-44] | < 20 µM | – | 630 | – | –
53 | AGKKTIRQYWKNKIKKKGRKAVIAW [Syn-safencin-36] | < 20 µM | – | 1290 | – | –
54 | AGRQALTKYLLEELRKRGKKWFIAW [Syn-xiamencin-36] | < 20 µM | 1520 | – | – | –
55 | AGRQALTKYLLEELRKRWKKAFIAW [Syn-xiamencin-20] | < 20 µM | – | 470 | – | –
56 | AGRQALTLELKEYLRKRGKKWFIAW [Syn-xiamencin-35] | < 20 µM | – | – | – | –
57 | AGRQALTLELKEYLRKRWKKAFIAW [Syn-xiamencin-19] | < 20 µM | – | 2150 | – | –
58 | AGRQALTLYLKEELRKFGKKWRIAW [Syn-xiamencin-37] | < 20 µM | 3710 | – | – | –
59 | AGRQALTLYLKEELRKFWKKARIAW [Syn-xiamencin-21] | < 20 µM | – | 590 | – | –
60 | AGRQALTLYLKEELRKRGKKWFIAW [Syn-xiamencin-33] | < 20 µM | – | 2660 | – | –
61 | AGRQALTLYLKEELRKRWKIAFKAW [Syn-xiamencin-22] | < 20 µM | – | 2210 | – | –
62 | AGRQALWKYLLEELRKRGKKAFIAW [Syn-xiamencin-44] | < 20 µM | 1180 | – | – | –
63 | AGRQALWLYLKEELRKFGKKARIAW [Syn-xiamencin-45] | < 20 µM | 6130 | – | – | –
64 | AGRQALWLYLKEELRKRGKIAFKAW [Syn-xiamencin-46] | < 20 µM | 11800 | – | – | –
65 | AGRQWLTLELKEYLRKRGKKAFIAW [Syn-xiamencin-51] | < 20 µM | – | 3660 | – | –
